Experimental data from the supplement of paper PMC10307832.

What was measured:
Test in all cases: relative viability (nuclei count vs DMSO), 5 days (fraction); higher = more cells survive
AT9283 + AZD7762 = compound: O=C(Nc1c[nH]nc1-c1nc2ccc(CN3CCOCC3)cc2[nH]1)NC1CC1 [AT9283] + NC(=O)Nc1cc(-c2cccc(F)c2)sc1C(=O)N[C@H]1CCCNC1 [AZD7762] (partner 0.2 µM)
Procedure, shortened: (§1)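 Nuclei were stained with Hoechst during a one-step fixation (final 0.05% Triton X-100, 1% formaldehyde, 1 ug/ml Hoechst) carried out 5 days after dosing, then counted on 4× images. The cells, lung cancer lines in 1536-well plates, had been dosed by pin tool the day after seeding with one drug alone or a fixed anchor-drug dose plus five library-drug doses (not always all listed) in √10 steps. Relative viability is the nuclei count in treated wells divided by that in vehicle wells, and each value is the median of duplicate plates.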

AT9283 + Crizotinib = compound: O=C(Nc1c[nH]nc1-c1nc2ccc(CN3CCOCC3)cc2[nH]1)NC1CC1 [AT9283] + C[C@@H](Oc1cc(-c2cnn(C3CCNCC3)c2)cnc1N)c1c(Cl)ccc(F)c1Cl [Crizotinib] (partner 1 µM)
Procedure, shortened: as §1

Erlotinib + OSI-027 = compound: C#Cc1cccc(Nc2ncnc3cc(OCCOC)c(OCCOC)cc23)c1 [Erlotinib] + COc1cccc2cc(-c3nc([C@H]4CC[C@H](C(=O)O)CC4)n4ncnc(N)c34)[nH]c12 [OSI-027] (partner 0.5 µM)
Procedure, shortened: as §1

AT9283 + Decitabine = compound: O=C(Nc1c[nH]nc1-c1nc2ccc(CN3CCOCC3)cc2[nH]1)NC1CC1 [AT9283] + Nc1ncn([C@H]2C[C@H](O)[C@@H](CO)O2)c(=O)n1 [Decitabine] (partner 2 µM)
Procedure, shortened: as §1

Erlotinib + Navitoclax = compound: C#Cc1cccc(Nc2ncnc3cc(OCCOC)c(OCCOC)cc23)c1 [Erlotinib] + CC1(C)CCC(c2ccc(Cl)cc2)=C(CN2CCN(c3ccc(C(=O)NS(=O)(=O)c4ccc(N[C@H](CCN5CCOCC5)CSc5ccccc5)c(S(=O)(=O)C(F)(F)F)c4)cc3)CC2)C1 [Navitoclax] (partner 0.5 µM)
Procedure, shortened: as §1

| Cell Line | relative viability (AT9283 + AZD7762; first compound 0.003 µM) | relative viability (AT9283 + AZD7762; first compound 0.03 µM) | relative viability (AT9283 + AZD7762; first compound 0.09487 µM) | relative viability (AT9283 + AZD7762; first compound 0.3 µM) | relative viability (AT9283 + Crizotinib; first compound 0.003 µM) | relative viability (AT9283 + Crizotinib; first compound 0.03 µM) | relative viability (AT9283 + Crizotinib; first compound 0.09487 µM) | relative viability (AT9283 + Crizotinib; first compound 0.3 µM) | relative viability (Erlotinib + OSI-027; first compound 0.02 µM) | relative viability (Erlotinib + OSI-027; first compound 0.2 µM) | relative viability (Erlotinib + OSI-027; first compound 0.6325 µM) | relative viability (Erlotinib + OSI-027; first compound 2 µM) | relative viability (AT9283 + Decitabine; first compound 0.003 µM) | relative viability (AT9283 + Decitabine; first compound 0.03 µM) | relative viability (AT9283 + Decitabine; first compound 0.09487 µM) | relative viability (AT9283 + Decitabine; first compound 0.3 µM) | relative viability (Erlotinib + Navitoclax; first compound 0.02 µM) | relative viability (Erlotinib + Navitoclax; first compound 0.2 µM) | relative viability (Erlotinib + Navitoclax; first compound 0.6325 µM) | relative viability (Erlotinib + Navitoclax; first compound 2 µM) |
| --- | --- | --- | --- | --- | --- | --- | --- | --- | --- | --- | --- | --- | --- | --- | --- | --- | --- | --- | --- | --- |
| NCI-H1755 | 0.466 | 0.401 | 0.326 | 0.267 | 0.891 | 0.718 | 0.433 | 0.385 | 0.757 | 0.776 | 0.786 | 0.619 | 0.712 | 0.803 | 0.67 | 0.527 | 1.02 | 1 | 0.976 | – |
| NCI-H522 | 0.626 | 0.582 | 0.399 | 0.37 | – | – | – | – | 0.749 | 0.672 | 0.816 | 0.66 | 0.67 | 0.607 | 0.569 | 0.479 | – | – | – | – |
| NCI-H1648 | 0.465 | 0.631 | 0.368 | 0.37 | – | – | – | – | 0.251 | 0.283 | 0.246 | 0.298 | 0.515 | 0.503 | 0.409 | 0.303 | – | – | – | – |
| NCI-H661 | – | – | – | – | 0.986 | 0.571 | 0.409 | 0.452 | 0.748 | 0.707 | 0.655 | 0.443 | 0.579 | 0.422 | 0.406 | 0.272 | – | – | – | – |
| A549 | – | – | – | – | 0.717 | 0.0751 | 0.0711 | 0.0659 | – | – | – | – | 0.136 | 0.114 | 0.0516 | 0.05 | 1.1 | 1.26 | 1.33 | 1.06 |
| SK-LU-1 | – | – | – | – | 0.922 | 0.519 | 0.295 | 0.305 | 0.305 | 0.369 | 0.302 | 0.253 | 0.62 | 0.423 | 0.415 | 0.407 | 1.07 | 1.36 | 0.752 | 0.733 |
| NCI-H2228 | – | – | – | – | 0.587 | 0.272 | 0.195 | 0.171 | 0.643 | 0.537 | 0.525 | 0.366 | – | – | – | – | 1.28 | 0.909 | 0.679 | 0.676 |
| NCI-H520 | – | – | – | – | 0.692 | 0.322 | 0.285 | 0.182 | 0.282 | 0.387 | 0.271 | 0.226 | 0.381 | 0.297 | 0.272 | 0.171 | 1.17 | 1.11 | 1.29 | 1.12 |
| UMC-11 | – | – | – | – | 0.58 | 0.075 | 0.0835 | 0.132 | – | 0.412 | 0.492 | 0.424 | 0.57 | 0.217 | 0.261 | 0.201 | 0.337 | 0.281 | 0.336 | 0.3 |
| COR-L23 | – | – | – | – | 0.616 | 0.185 | 0.118 | 0.158 | 0.87 | 0.879 | 0.721 | 0.512 | 0.385 | 0.304 | 0.169 | 0.168 | 1.16 | 1.04 | 1.08 | 1 |
| NCI-H1395 | 0.411 | 0.361 | 0.333 | 0.335 | – | – | – | – | 0.677 | 0.712 | 0.615 | 0.629 | 0.819 | 0.604 | 0.42 | 0.385 | 1.09 | 1.02 | 1.32 | 1.13 |
| NCI-H1650 | – | – | – | – | 1.01 | 0.596 | 0.267 | 0.217 | 0.533 | 0.515 | 0.472 | 0.33 | 0.565 | 0.499 | 0.387 | 0.238 | 1.15 | 1.23 | 1.14 | 0.924 |
| NCI-H1563 | – | – | – | – | 0.955 | 0.713 | 0.686 | 0.658 | 0.768 | 0.867 | 0.801 | 0.663 | – | – | – | – | – | – | – | – |
| NCI-H358 | 0.431 | 0.178 | 0.186 | 0.175 | 0.391 | 0.175 | 0.156 | 0.145 | 0.82 | 0.458 | 0.407 | 0.152 | 0.219 | 0.143 | 0.102 | 0.0856 | – | – | – | – |
| IA-LM | – | – | – | – | 0.846 | 0.261 | 0.0839 | 0.132 | – | – | – | – | – | – | – | – | 0.847 | – | 1.01 | 0.802 |
| EBC-1 | – | – | – | – | 0.212 | 0.178 | 0.172 | 0.181 | – | – | – | – | – | – | – | – | 0.404 | 0.466 | 0.363 | 0.34 |
| NCI-H1703 | 0.12 | 0.108 | 0.0955 | 0.106 | 0.694 | 0.401 | 0.211 | 0.225 | – | – | – | – | – | – | – | – | 1.1 | 1.09 | 1.32 | 1.11 |
| NCI-H2342 | 0.439 | 0.364 | 0.36 | 0.4 | – | – | – | – | 0.596 | 0.635 | 0.556 | 0.55 | 0.653 | 0.766 | 0.655 | 0.455 | – | – | – | – |
| CAL-12T | 0.584 | 0.502 | 0.347 | 0.189 | 0.642 | 0.293 | 0.276 | 0.232 | 0.672 | 0.47 | 0.219 | 0.26 | – | – | – | – | 1.35 | 1.31 | 0.614 | 0.546 |
| NCI-H1793 | 0.564 | 0.495 | 0.233 | 0.185 | – | – | – | – | 0.281 | 0.225 | 0.235 | 0.156 | 0.498 | 0.469 | 0.283 | 0.266 | 0.447 | 0.325 | 0.297 | 0.387 |
| SW 1573 | – | – | – | – | 0.698 | 0.376 | 0.219 | 0.157 | 0.651 | 0.503 | 0.597 | 0.44 | 0.394 | 0.175 | 0.171 | 0.143 | 0.922 | 1.05 | – | 0.896 |
| SW 900 | 0.478 | 1.15 | 0.545 | 0.271 | – | – | – | – | 0.584 | 0.598 | 0.642 | 0.374 | 0.422 | 0.442 | 0.349 | 0.232 | – | – | – | – |
| Calu-6 | – | – | – | – | 0.742 | 0.253 | 0.238 | 0.291 | – | – | – | – | – | – | – | – | 0.919 | 0.803 | 0.781 | 0.759 |
